For test [1], the system named is HCT-116. Briefly: NCI 60 cell line screen. The conditions noted are these: HCT-116, Colon Cancer; single concentration 10^−5 M. In kind it is cell-based, human. Here is the method: The cytotoxic activity of nortopsintin analogs (4a-4j) was determined by the national cancer institute (NCI, Bethesda, Maryland, USA) against 60 different cancer cell lines at a single concentration of (10^-5 M). For the determination of IC50 value, we used MTT assay kit (Sigma) according to the manufacturer's protocol. HCT-116 cells were seeded into a 96-well plate at a concentration of 20,000 cells/well. After 24 h, the media was aspirated and replaced with serum-free media containing serial dilutions of the 4i compound. […] The percentage of cytotoxicity was calculated using the following equation: % Cytotoxicity = [1 - ([…])] × 100.

The subject of test [2] is CDK6 gene expression. Briefly: Gene expression by quantitative real-time PCR, CDK6. In kind it is cell-based, human. To be noted: IC50 dose, 48 h, normalized to GAPDH, vs control. Here is the method: (§1) The cells were seeded in a six-well plate at a concentration of 3 × 10^5 cells/well. After a 24 h incubation, the IC50 dose of active compound 4i was applied to each well for 48 h. The cells were collected and centrifuged at 2500 rpm for 15 min at 4 °C. The total RNA isolation kit (RNeasy extraction kit—QIAGEN) was used to isolate RNA according to the manufacturer’s instructions.
(§2) Gene expression analysis by quantitative real-time PCR. The levels of gene expression of CDK2, CDK4 and CDK6 were determined using iScript One-Step RT-PCR kit with SYBR Green (BIORAD) according to the manufacturer protocol. The sequences of the used primers are illustrated in Table 4. The genes expression was normalized to GAPDH as the housekeeping gene. The protocol used for cDNA synthesis was: 10 min at 50 °C, iScript Reverse transcriptase inactivation: 5 min at 95 °C and PCR cycling and detection (30 to 45 cycles): 10 s at 95 °C and 30 s at 55 °C to 60 °C.
(In qPCR the cycle at which signal appears reflects the starting amount.)

The subject of test [3] is CDK4 gene expression. Description: Gene expression by quantitative real-time PCR, CDK4. It is filed as cell-based, human. To be noted: IC50 dose, 48 h, normalized to GAPDH, vs control. As to the method:
as §1, §2

For test [4], the system named is EKVX. Briefly: NCI 60 cell line screen. In kind it is cell-based. The conditions noted are these: Non-Small Cell Lung Cancer, single concentration 10^−5 M. The procedure, abridged: (§3)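 Data come from the NCI panel of 60 cancer cell lines, each treated once at 10^-5 M; the recorded value is cytotoxic activity.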
Test [5] relates to HCT-15. Briefly: NCI 60 cell line screen. It is filed as cell-based. To be noted: HCT-15, Colon Cancer; single concentration 10^−5 M. Summed up:
as §3

Test [6] has as its system UACC-257. Briefly: NCI 60 cell line screen. It is filed as cell-based. The conditions noted are these: UACC-257, Melanoma; single concentration 10^−5 M. Summed up: as §3
For test [7], the system named is OVCAR-4. Description: NCI 60 cell line screen. In kind it is cell-based. To be noted: OVCAR-4, Ovarian Cancer; single concentration 10^−5 M. Summed up:
as §3

The test system of test [8] is NCI-H322M. Briefly: NCI 60 cell line screen. In kind it is cell-based. The conditions noted are these: Non-Small Cell Lung Cancer, single concentration 10^−5 M. The procedure, abridged:
as §3

For test [9], the system named is SK-MEL-5. Description: NCI 60 cell line screen. It is filed as cell-based. The conditions noted are these: SK-MEL-5, Melanoma; single concentration 10^−5 M. Summed up:
as §3

For test [10], the system named is OVCAR-8. Briefly: NCI 60 cell line screen. It is filed as cell-based. To be noted: OVCAR-8, Ovarian Cancer; single concentration 10^−5 M. The procedure, abridged:
as §3

Test [11] relates to NCI/ADR-RES. Briefly: NCI 60 cell line screen. It is filed as cell-based. The conditions noted are these: Ovarian Cancer, single concentration 10^−5 M. The procedure, abridged: as §3
Test [12] relates to A498. Briefly: NCI 60 cell line screen. It is filed as cell-based. To be noted: A498, Renal Cancer; single concentration 10^−5 M. The procedure, abridged:
as §3

Test [13] concerns MDA-MB-468. Description: NCI 60 cell line screen. In kind it is cell-based. The conditions noted are these: MDA-MB-468, Breast Cancer; single concentration 10^−5 M. Summed up:
as §3

Test [14] deals with SK-OV-3. Briefly: NCI 60 cell line screen. It is filed as cell-based. To be noted: SK-OV-3, Ovarian Cancer; single concentration 10^−5 M. Summed up:
as §3

For test [15], the system named is A549/ATCC. Briefly: NCI 60 cell line screen. It is filed as cell-based. To be noted: Non-Small Cell Lung Cancer, single concentration 10^−5 M. The procedure, abridged: as §3
In test [16] the test system is OVCAR-3. Description: NCI 60 cell line screen. In kind it is cell-based. To be noted: OVCAR-3, Ovarian Cancer; single concentration 10^−5 M. Summed up: as §3
Test [17] has as its system 786-0. Briefly: NCI 60 cell line screen. To be noted: 786-0, Renal Cancer; single concentration 10^−5 M. It is filed as cell-based. The procedure, abridged: as §3
Test [18] concerns ACHN. Briefly: NCI 60 cell line screen. It is filed as cell-based. To be noted: Renal Cancer, single concentration 10^−5 M. The procedure, abridged: as §3
Test [19] relates to NCI-H23. Description: NCI 60 cell line screen. It is filed as cell-based. The conditions noted are these: NCI-H23, Non-Small Cell Lung Cancer; single concentration 10^−5 M. Summed up: as §3
Test [20] deals with SK-MEL-28. Description: NCI 60 cell line screen. It is filed as cell-based. To be noted: SK-MEL-28, Melanoma; single concentration 10^−5 M. Summed up:
as §3

The subject of test [21] is UACC-62. Briefly: NCI 60 cell line screen. It is filed as cell-based. The conditions noted are these: UACC-62, Melanoma; single concentration 10^−5 M. Summed up: as §3
Test [22] relates to HOP-92. Briefly: NCI 60 cell line screen. In kind it is cell-based. The conditions noted are these: HOP-92, Non-Small Cell Lung Cancer; single concentration 10^−5 M. Summed up:
as §3

In test [23] the test system is SF-539. Description: NCI 60 cell line screen. It is filed as cell-based. To be noted: SF-539, CNS Cancer; single concentration 10^−5 M. The procedure, abridged:
as §3

In test [24] the test system is NCI-H226. Description: NCI 60 cell line screen. In kind it is cell-based. To be noted: NCI-H226, Non-Small Cell Lung Cancer; single concentration 10^−5 M. The procedure, abridged:
as §3

In test [25] the test system is HCT116 cells. Description: Cell cycle analysis by FACS (PI staining). It is filed as cell-based, human. The conditions noted are these: HCT116, treated with IC50 for 48 h, control 41.93%. Here is the method: Briefly, HCT116 cells were treated with 4i compound’s IC50 for 48 h. Then, the cells were fixed in cold 70% ethanol solution for 2 h at 4 °C and centrifuged at 800 g for 5 min. The ethanol solution was removed. PBS was used to wash the cells twice. DNA was stained with 1 µg/mL propidium iodide (PI) solution (Sigma-Aldrich, St. Louis, MO, USA), supplemented with 100 µg/mL RNase A (Roche, Basel, Switzerland) for 30 min in the dark at 37 °C. After centrifugation, the cells were suspended in phosphate buffer solution and the fluorescence was measured using flow cytometry by FACSCalibur (BD Biosciences, Mountain View, CA). The data were analyzed using the CellQuest software (BD Biosciences).
On the technique in general: Flow cytometry measures light scatter and fluorescence of single cells or particles in a stream.

Test [26] relates to CDK2 gene expression. Briefly: Gene expression by quantitative real-time PCR, CDK2. It is filed as cell-based, human. The conditions noted are these: IC50 dose, 48 h, normalized to GAPDH, vs control. As to the method: as §1, §2

The structures appear in SMILES notation.

Take `CN(C)c1ccc(-c2cc(-c3c[nH]c4ccccc34)nc(-c3c[nH]c4ccccc34)c2C#N)cc1` [4i]: the Growth % turned out to be 57.78% in [1]; 93.75% in [4]; 44.65% in test [5]; 101.12% in test [6]; 95.26% in test [7]; 92.92% in test [8]. In addition, the Growth % was 96.50% in test [9]; 96.39% in test [10]; 90.91% in test [11]; 98.45% in test [12]; 81.79% in test [13]; 94.88% in test [14]. The Growth % came to 89.56% in test [15]; 91.03% in test [16]; 99.08% in [17]; 98.60% in test [18]; 88.40% in test [19]; 101.89% in test [20]. Moreover, the Growth % is given as 85.78% in test [21], 104.62% in test [22], 75.80% in test [23] and 79.62% in test [24]. Moreover, the “Relative gene expression of CDK6” value in [2] is given as “significantly suppress the expression”. Besides, the “Relative gene expression of CDK4” value in test [3] was “significantly suppress the expression”. In addition, the “cells at G1 phase (%DIP G1)” value in [25] came to 47.62%. Also, in [26], the “Relative gene expression of CDK2” value is recorded as “significantly suppress the expression”.
On to `N#Cc1c(-c2ccc(O)cc2)cc(-c2c[nH]c3ccccc23)nc1-c1c[nH]c2ccccc12` [4j], for which the Growth % in test [1] is recorded as 105.38%; in [4], 100.08%; in test [5], 57.19%; in test [6] it was 108.53%; in [7], 94.07%; in test [8] it was 101.04%. Moreover, the Growth % in test [9] was 84.85%; in [10], 99.60%; in test [11] it was 102.41%; in test [12], 110.66%; in test [13], 101.94%; in test [14], 96.54%. Further, the Growth % came out at 105.12% in test [15]; 92.93% in [16]; 101.37% in test [17]; 72.15% in [18]; 89.30% in test [19]; 76.45% in test [20]. Further, the Growth % is 96.73% in test [21], 125.42% in test [22], 66.62% in test [23] and 86.10% in test [24].
As to `N#Cc1c(-c2ccc([N+](=O)[O-])cc2)cc(-c2c[nH]c3ccccc23)nc1-c1c[nH]c2ccccc12` [4h], the Growth % was determined as 100.64% in test [1]; 82.20% in test [4]; 99.04% in [5]; 104.66% in [6]; 99.28% in [7]; 95.29% in test [8]. Also, the Growth % came out at 97.67% in [9]; 98.23% in [10]; 96.36% in test [11]; 99.31% in test [12]; 92.34% in [13]; 90.72% in [14]. Further, the Growth % in [15] was determined as 96.38%; in [16], 97.76%; in [17] it was 106.06%; in test [18], 94.69%; in test [19] it was 97.26%; in test [20], 106.75%. In addition, the Growth % in [21] is recorded as 85.82%; in test [22] it was 98.33%; in test [23], 97.59%; in [24], 87.03%.
